# Experimental data as given in patent US20250073234A1, “COMBINATION THERAPIES INCLUDING PARP1 INHIBITORS” (Cornell University, priority 2022, published 2025).
# Entries after “also recorded” stand apart in the source; their conditions may differ.
# Columns and labels:
# WPMY-1 cells = test: Autophagy activation by LC3 lipidation in WPMY-1 cells; type: cell-based, human; conditions: with lysosomal inhibitors
# From the text: To knock out PARP-1 in WPMY-1 cells, single-guide RNA sequences targeting PARP-1 exon2 were purchased from Synthego and transduced into WPMY-1 cells with recombinant Streptococcus pyogenes Cas9 protein (Truecut Cas9 Protein v2, Thermo), using the Neon Transfection System 1 (Invitrogen) following the manufacturer's protocol and single clones were expanded and screened by protein immunoblotting. To perform AP1-A binding site editing in the SQSTM promoter in WPMY-1 cells, single-guide RNA sequences targeting the human AP1-A binding site (Synthego) was transduced into cells with a Cas9 protein and a single-stranded donor oligonucleotide (ssODN, IDT) using Neon Electroporation System. Single clones were expanded and screened for AP1-A editing by Sanger sequencing. A point mutation to disrupt the API enhancer element in the p62 promoter was introduced by Site Directed Mutagenesis (Stratagene). Knockdown of MCT1, MCT4, FOS, PARP1, PARP2, CD38, ATG5, and SIRT1-7 genes in WPMY-1 cells were achieved by siRNA transfection using Lipofectamine RNAiMAX Transfection Reagent (Invitrogen). […]
# Cells for protein analysis were lysed in RIPA buffer (20 mM Tris-HCl, […], 2 mM EDTA, 1% Triton-X, 10% glycerol, 0.1% SDS, and 0.5% sodium deoxycholate) with phosphatase and protease inhibitors. […] Protein concentration in lysates was determined by using Protein Assay Kit (Bio-Rad). […]
# [1] = system: bone marrow stromal cells; test: qPCR in mouse bone marrow stromal cells; type: cell-based
# Protocol: Total RNA from mouse tissues, cells and cultured organoids was extracted using the TRIZOL reagent (Invitrogen) and the RNeasy Mini Kit (QIAGEN), followed by DNase treatment. After quantification using a Nanodrop 1000 spectrophotometer (Thermo Scientific), RNA was either processed for RNA-seq or reverse-transcribed using random primers and MultiScribe Reverse Transcriptase (Applied Biosystems). Gene expression was analyzed by amplifying 20 ng of the complementary DNA using the CFX96 Real Time PCR Detection System with SYBR Green Master Mix (BioRad) and primers described in Table S1. The amplification parameters were set at 95° C. for 30 seconds, 58° C. for 30 seconds, and 72° C. for 30 seconds (40 cycles total). Gene expression values for each sample were normalized to the 18s RNA.
# PC3 cells = test: Trans-well migration and invasion of PC3 cells co-cultured with pre-treated WPMY-1 cells; type: cell-based, human; conditions: co-culture with Olaparib-pretreated WPMY-1, 20 h, basal and ADT
# Protocol: For co-culture migration and invasion assays, 8×10^4 WPMY-1 cells were plated onto the lower chamber of a 24 well plate in DMEN containing 10% FBS (basal conditions) or 10% charcoal stripped FBS (ADT conditions) and vehicle (DMSO) or Olaparib 10 μM or Olaparib 10 μM+PEGPH20 2.5 μg/ml for 48 hours. 5×10^4 PC3 were seeded in a transwell chamber (Corning Biocoat control inserts) or in a transwell invasion chamber (Corning BioCoat Matrigel Invasion Chambers), both with 8 μm membrane. PC3 were allowed to migrate or invade for 20 hours at 37° C., 5% CO2. Cells were fixed in cold methanol and stained with crystal violet.
# [2] = system: RM1-BoMe3 cells on femur pieces; test: Bone-in-culture array (BICA) with RM1-BoMe3 cells; type: cell-based, mouse; conditions: bone pre-treated with Olaparib 20 μM 48 h, ADT conditions
# Protocol: 8-week-old C57B16 male mice were euthanized, and lower limb bone were collected. Femur epiphyses were dissected and fragmented in 4 pieces by sterilized micro dissecting scissors. Bone pieces were aligned into low-attachment 96-well plates pre-loaded with 200 μL DMEM/F12 supplemented with 5% charcoal striped FBS for ADT conditions. Bone pieces were treated with DMSO or Olaparib 20 μM for 48 h and then 5000 RM1-BoMe3-RFP-Luc cells were seed on top of the bone pieces. After 48 hours, pictures were taken using EVOS M5000 Imaging System and RFP^+ positive areas were measured using Fiji.
structure (smiles),measurement,setting,value
O=C(c1cc(Cc2n[nH]c(=O)c3ccccc23)ccc1F)N1CCN(C(=O)C2CC2)CC1 [Olaparib],autophagy activation (LC3 lipidation),WPMY-1 cells,induced autophagy activation; also recorded: induces autophagy
same,"markers of stromal activation (Acta2, Has2)","[1]; cells isolated from in vivo treated mice, 40 mg/kg",enhanced expression of markers of stromal activation
same,"markers of TGFβ family (Tgfb3, Tgfb2) and Has3","[1]; in vitro, Olaparib 10 μM, 96 h",increased expression of markers of TGFβ family
same,migration and invasion of PC3 cells,PC3 cells,increased migration and invasion of PCa cells
same,seeding of cancer cells onto the bone (RFP+ area),[2],increased tumor homing of RM1-BoMe3
same,seeding of cancer cells onto the bone (RFP+ area),[2]; listed as Ola,significantly increased the seeding of cancer cells onto the bone
